{"source": "patent US12576155B2", "about": "“Senolytic and antiinflammatory prodrugs and methods of use thereof” (priority 2019, dated 2026)", "format_in_all_cases": "cell-based", "key": {"[1]": {"tested_on": "senescent human fibroblasts", "experiment": "Other reported senolytic compounds in cultured senescent human fibroblasts", "settings": "hydroperoxide-, replication-, irradiation- and etoposide-induced senescent cells", "excerpt": "(§1) For replication-induced senescence, cells were passaged until they lost the ability to proliferate and became senescent. NBFs were used as senescent cells after approximately 8-9 passages or 12 population doublings. HEFs were used after approximately 35 passages or 50 population doublings. HUVECs were senescent after approximately 18 passages or 24 population doublings.\n(§2) For ionizing radiation-induced senescence, MEFs and HEFs were exposed to 10 Gy of ionizing irradiation in an RS 2000 X-ray Biological Irradiator (Rad Source Technologies, Inc.) at a dose rate of 1.205 Gy/min. The day after irradiation, MEFs or HEFs were passaged at a 1:3 dilution and cultured for another three days. Then these cells were plated to carry out further experiments.\nFor etoposide-induced senescence, MEFs were treated with 2 μM etoposide for 20 hours, and HEFs were treated with 10 μM etoposide for 12-18 hours. […]\n(§3) To test the viability of senescent and non-senescent cells treated with SSK1, cells were stained with a mixture of Hoechst 33342 and propidium iodide (PI) (CA1120, Solarbio) to distinguish living and dead cells. […] The plate was incubated at 4° C. for 30 min and observed on a fluorescence microscope or automatic cell imaging system. Viable cells were quantified using a MD Image Xpress Micro XL (Molecular Devices)."}, "[2]": {"tested_on": "senescent cells", "experiment": "Cell viability, SSK1 combined with p38 inhibitors", "settings": "SSK1 0.5 μM plus inhibitor", "experimental": "To test the viability of senescent and non-senescent cells treated with SSK1, cells were stained with a mixture of Hoechst 33342 and propidium iodide (PI) (CA1120, Solarbio) to distinguish living and dead cells. After treatment with the small molecules, the cell culture medium was removed, and the cells were washed once with PBS. Then, the cells were stained according to the manufacturer's protocol, where the final concentrations of Hoechst 33342 and PI were 5 μg/ml and 2 μg/ml in PBS buffer. The plate was incubated at 4° C. for 30 min and observed on a fluorescence microscope or automatic cell imaging system. Viable cells were quantified using a MD Image Xpress Micro XL (Molecular Devices)."}, "[3]": {"tested_on": "primary human chondrocytes isolated from Osteoarthritis patient", "experiment": "Viability / apoptosis of primary human OA chondrocytes (CCK-8, Annexin V flow cytometry)", "experimental": "Fibroblasts were digested into single cell suspensions by incubation with 0.25% trypsin-EDTA (Invitrogen) at 37° C. for 3-5 min or with accutase at 37° C. for 10 min. Cells were then stained with FITC annexin V and propidium iodide (PI) according to the manufacturer's protocol (FITC Annexin V Apoptosis Detection Kit I, BD Pharmingen™). For chondrocytes Annexin V/7-AAD analysis, the trypsinized live chondrocytes and floating cells were collected, centrifuged and washed with PBS. Cells were stained with the Annexin V Apoptosis Detection Kit (Biolegend, 640934) according to the manufacturer's instruction. Before the flow cytometric analysis, the precision count beads (Biolegend, 424902) were added to count the absolute live cell numbers. Flow cytometry was performed within one hour on an Aria III (BD Biosciences) or FACSVerse (BD Biosciences). Data were analyzed using FlowJo software (FlowJo LLC).\nCell Counting Kit-8 (CCK-8) analysis was also used to assess cell viability. Senescent and non-senescent cells or chondrocytes were inoculated into 96-well plates and cultured overnight. Then cells were treated with vehicle (0.05% DMSO) or different concentrations of SSK2. After 48 h or 72 h, CCK-8 solution (C0041, Beyotime) was added to each well as 1:10 ratio and inoculated for another 2 h. The absorbance was measured at 450 nm wavelength."}, "[4]": {"tested_on": "β-galactosidase positive senescent human embryonic fibroblasts (HEFs)", "experiment": "CCK-8 cell viability, SSK2 in etoposide-induced senescent HEFs", "settings": "increasing doses, 72 h", "experimental": "(§4) For etoposide-induced senescence, MEFs were treated with 2 μM etoposide for 20 hours, and HEFs were treated with 10 μM etoposide for 12-18 hours. Three days after treatment, cells were sub-cultured at a 1:3 ratio for 72 hours in a fresh medium before further analysis.\nCultured cells were washed once with PBS and fixed in β-galactosidase staining fix solution for 15 min at room temperature. Cells were then washed three times with PBS and incubated with β-galactosidase staining solution (Beyotime Biotechnology) for 16-20 hours at 37° C. For 12-well plates, 1 ml of β-galactosidase staining solution was added to each well. The plate was sealed with Parafilm to prevent evaporation of the staining medium. After the overnight incubation, cells were washed with PBS and observed under a bright field microscope. For β-galactosidase staining of frozen sections, the frozen sections were dried at 37° C. for 20-30 min and then fixed in β-galactosidase staining fix solution for 15 min at room temperature. The frozen sections were washed three times with PBS and incubated with β-galactosidase staining solution overnight at 37° C. […]\nCell Counting Kit-8 (CCK-8) analysis was also used to assess cell viability. […] The absorbance was measured at 450 nm wavelength."}, "[5]": {"tested_on": "primary mouse fibroblasts and their replication-induced senescent counterparts", "experiment": "Cell viability testing, senescent vs non-senescent primary mouse fibroblasts", "experimental": "Mouse embryonic fibroblasts (MEFs) were isolated from E13.5 embryos as described previously (Zhao et al., Cell Stem Cell 23, 31-45 e37([…])). Newborn mouse skin fibroblasts (NBFs) were isolated from the skin of day 1-3 newborn mice. Adult mouse lung fibroblasts were isolated from 2-month-old and 23-month-old mice. Briefly, mouse embryonic tissues, skin and lung were obtained from described donor mice. Then, these tissues were minced with forceps and incubated in 2 mg/ml collagenase IV (Gibco) for 2-4 hours at 37° C. After enzyme treatment, cells were collected by centrifugation and resuspended in high-glucose DMEM (Gibco) supplemented with 10% fetal bovine serum (FBS) and 1% penicillin-streptomycin (Gibco). The three types of mouse primary cells were all cultured in a humidified incubator at 37° C. and 5% CO2.\nTo avoid replication-induced senescent cells, low-passage proliferative NBFs (<3 passages), MEFs (<3 passages), mouse lung fibroblasts (<3 passages), HEFs (<10 passages), and HUVECs (<6 passages) were used as normal controls. To induce cell quiescence, MEFs were cultured in DMEM without FBS for 2 days.\nas §1\nTo test the viability of senescent and non-senescent cells treated with SSK1, cells were stained with a mixture of Hoechst 33342 and propidium iodide (PI) (CA1120, Solarbio) to distinguish living and dead cells. After treatment with the small molecules, the cell culture medium was removed, and the cells were washed once with PBS. […] The plate was incubated at 4° C. for 30 min and observed on a fluorescence microscope or automatic cell imaging system. Viable cells were quantified using a MD Image Xpress Micro XL (Molecular Devices)."}, "[6]": {"tested_on": "human senescent fibroblasts induced by different stimuli", "experiment": "Cell viability, senescent and non-senescent human embryonic fibroblasts (HEFs)", "settings": "human senescent cells; panel of FDA-approved drugs", "experimental": "Human embryonic skin fibroblasts (HEFs) were obtained as previously described. Briefly, human embryonic skin tissues, obtained from aborted tissue with informed patient consent, were minced with forceps and incubated in 1 mg/ml collagenase IV for 1-2 hours at 37° C. After enzyme treatment, cells were collected by centrifugation and resuspended in HEF medium (Dulbecco's modified Eagle's medium (DMEM, Gibco) containing 10% fetal bovine serum (FBS, Ausbian), 1% GlutaMAX (Gibco), 1% Non-Essential Amino Acids (NEAA, Gibco) and 1% penicillin/streptomycin (Gibco). Cells were plated on 10 cm tissue culture dishes and grown in 10% FBS DMEM.\nas §1, §2, §4, §3"}}}
{"compound": "CC1(C)CCC(c2ccc(Cl)cc2)=C(CN2CCN(c3ccc(C(=O)NS(=O)(=O)c4ccc(N[C@H](CCN5CCOCC5)CSc5ccccc5)c(S(=O)(=O)C(F)(F)F)c4)cc3)CC2)C1", "note": "[ABT263]", "values": [{"measurement": "Selective killing of senescent human fibroblasts compared with proliferative cells", "setting": "[1]", "result": "selectively killed hydroperoxide-induced senescent human fibroblasts but not replication-induced cells"}]}
{"compound": "Cc1ccc(-n2nc(C(C)(C)C)cc2NC(=O)Nc2ccc(OCCN3CCOCC3)c3ccccc23)cc1", "note": "[Birb796]", "values": [{"measurement": "Viable cells, SSK1 combined with p38 MAPK inhibitor", "setting": "[2]", "result": "impaired SSK1's ability to specifically kill senescent cells"}]}
{"compound": "Oc1ccc(-c2nc(-c3ccncc3)c(-c3ccc(F)cc3)[nH]2)cc1", "note": "[SB202190]", "values": [{"measurement": "Viable cells, SSK1 combined with p38 MAPK inhibitor", "setting": "[2]", "result": "impaired SSK1's ability to specifically kill senescent cells"}]}
{"compound": "C[S+]([O-])c1ccc(-c2nc(-c3ccncc3)c(-c3ccc(F)cc3)[nH]2)cc1", "note": "(stereo not shown) [SB203580]", "values": [{"measurement": "Viable cells, SSK1 combined with p38 MAPK inhibitor", "setting": "[2]", "result": "impaired SSK1's ability to specifically kill senescent cells"}]}
{"compound": "O=C(Nc1ccn([C@@H]2O[C@H](CO)C(O)C2(F)F)c(=O)n1)OCc1ccc(O[C@@H]2OC(CO)[C@H](O)C(O)C2O)c([N+](=O)[O-])c1", "note": "(stereo partly shown) [SSK2]", "values": [{"measurement": "Elimination of OA chondrocytes", "setting": "[3]; FIG. 16: 10 μM, 72 h, FIG. 17: increasing concentrations", "result": "efficiently eliminate primary human chondrocytes isolated from Osteoarthritis patient"}, {"measurement": "Viable human OA chondrocytes with increasing concentrations", "setting": "[3]; SSK2 treatment for 48 h / 72 h as printed", "result": "Dose-dependent elimination of senescent cells"}, {"measurement": "Selective killing of senescent HEFs (viable cells)", "setting": "[4]", "result": "efficiently and selectively kill β-galactosidase positive senescent human embryonic fibroblasts (HEFs) in a dose-dependent manner"}]}
{"compound": "Nc1ccn([C@@H]2O[C@H](CO)[C@@H](O)C2(F)F)c(=O)n1", "note": "[gemcitabine]", "values": [{"measurement": "Selective killing of senescent cells (viable cells)", "setting": "[5]; increasing doses, senescent vs non-senescent cells", "result": "killed both cell types"}, {"measurement": "Cytotoxicity for senescent cells", "setting": "[5]; mouse senescent cells, panel of FDA-approved drugs", "result": "killed both mouse and human senescent cells effectively and potently"}, {"measurement": "Cytotoxicity for senescent cells", "setting": "[6]", "result": "killed both mouse and human senescent cells effectively and potently"}]}
